{"source": "patent US5486604A", "about": "“Cyclic ADP ribose antagonists” (Regents of the University of Minnesota, priority 1993, dated 1996)", "key": {"[1]": {"test_system": "caffeine induced Ca^+2 release", "assay": "Caffeine induced Ca2+ release and its potentiation by cADPR, S. purpuratus homogenates", "type": "biochemical, Strongylocentrotus purpuratus", "method": "FIG. 7 Inhibition of the potentiating effect of cADPR on caffeine induced Ca^+2 release. Ca^+2 release from S. purpuratus homogenates (1.25%) was measured using Fluo 3 as Ca^+2 indicator. (a) In the absence of cADPR, addition of 1 mM caffeine induced no Ca^+2 release (curve labeled 0). The presence of 20 nM cADPR (arrow labeled cADPR) greatly potentiated the Ca^+2 releasing activity of 1 mM caffeine (curve labeled 20).\n(§1) Homogenates from Strongylocentrotus purpuratus eggs were prepared as previously described (Lee, H. C. (1991) J. Biol. Chem. 266, 2276-2281, Lee, H. C. (1993) J. Biol. Chem. 268, 293-299). Briefly, eggs were washed once in artificial sea water, twice in Ca^+2 -free sea water containing 1 mM EGTA, twice in Ca^+2 -free sea water without EGTA, once with the homogenization buffer (GluIAG MPM) containing 250 mM N-methylglucamine, 250 mM potassium gluconate, 20 mM HEPES, and 1 mM MgCl2; pH titrated to 7.2 with acetic acid and resuspended with the same medium to 25% (v/v). The following additions were made: 10 μg/ml of leupeptin, 10 μg/ml of aprotinin, 50 μg/ml of soybean trypsin inhibitor, 2 units/ml of creatine kinase, 4 mM phosphocreatine and 0.5 mM ATP. The suspension was chilled on ice for 10-15 min and transferred to a beaker inside a cell disruption bomb (Parr Instrument Co., Ill.). The suspension was mixed continuously with a magnetic stirring bar while nitrogen pressure of 80 psi was applied for 10-30 seconds. The sudden decompression of the suspension as it was released from the bomb effectively homogenized the eggs. The homogenates were centrifuged for 12-14 seconds (13,000×g, 4° C.) in a microfuge (Fisher) and the supernatant was collected and stored frozen at -70 ° C. until use.\n(§2) Frozen egg homogenates prepared as described above were thawed in a 17° C. water bath for 20-30 min and then diluted to 5% with the homogenization medium (GLuIM) containing 2 units/ml of creatine kinase, 4 mM phosphocreatine and 0.5 mM ATP. After incubating at 17° C. for one hour the homogenates were diluted sequentially to 2.5% and finally to 1.25% with the same medium. Following each dilution, the homogenates were incubated at 17° C. for one hour. After the last dilution, fluo 3 was added to a final concentration of 3 μM. Fluorescence was measured at 490 nm excitation and 535 nm emission using a Hitachi spectrofluorimeter (F-2000). Fluo 3 fluorescence intensity is directly related to the Ca^+2 concentration (Dargie, P. J., Agre, M. C., and Lee, Hon. C. (1990) Cell Regulation 1,279-290). In some Figures the Fluo 3 fluorescence intensity was calibrated with the addition of known amounts of Ca^ +2. All assays were done in a curvette maintained at 17° C. with a circulating water bath and its content continuously mixed with a magnetic stirring bar. The volume of homogenate used for each assay was 0.2 ml."}, "[2]": {"target": "cADPR binding site", "assay": "Specific binding of [32P]cADPR to sea urchin egg microsomes (filtration assay)", "parameters": "species or system Lytechinus pictus", "method": "FIG. 4 Competitive inhibition of ^32 P-cADPR binding by 8-amino-cADPR and cADPR. Specific binding of ^32 P-cADPR to L. pictus microsomes was measured in the presence of various concentrations of cADPR (filled squares) and 8-amino-cADPR (open squares). Total binding in the presence of a high concentration of cADPR (1.2 μM) was taken as non-specific binding (55 cpm) and was subtracted from all the values;\nSpecific binding of [^32 P]cADPR to sea urchin egg microsomes was determined by a filtration assay as described previously (Lee, H. C. (1991) J. Biol. Chem. 266, 2276-2281) with some modifications. L. pictus egg homogenates (1 ml) were dialyzed overnight against 1 liter of the homogenization buffer (GluIM listed above). After dialysis, the homogenates were centrifuged for 30 min in a microfuge and the supernatant containing microsomes was collected and diluted 20 fold with GluIM. About 40,000 cpm of [^32 P]cADPR (400 Ci/mmol) and various concentrations of either cADPR or 8-substituted analogs were incubated with the 20 fold diluted microsomes for 10 min at 4° C. in a volume of 0.1 ml. […] The filters were then washed with 4 ml of 10 % polyethylene glycol and the radioactivity on the filters was determined by liquid scintillation counting. […] The specific binding was determined as the total binding minus the binding in the presence of 1.2 μM of unlabeled cADPR. […]"}, "[3]": {"test_system": "cADPR-sensitive Ca^+2 release", "assay": "cADPR-induced Ca2+ release from S. purpuratus egg homogenates, Fluo 3 as Ca2+ indicator", "type": "biochemical, Strongylocentrotus purpuratus", "method": "FIG. 2 Inhibition of cADPR induced Ca^+2 release by 8-amino-cADPR Ca^+2 release from S. purpuratus homogenates (1.25%) was monitored using Fluo 3 as Ca^+2 indicator. (a) The effect of varying the concentration of cADPR on Ca^+2 release. (b) The inhibition of Ca^+2 release induced by 135 nM of cADPR by pre-treatment of the homogenates with 100 nM 8-amino-cADPR.\nFIG. 3 Competitive inhibition of cADPR dependent Ca^+2 release by 8-amino-cADPR. Ca^+2 release from S. purpuratus homogenates (1.25%) induced by various concentrations of cADPR was measured in the presence and absence of 100 nM 8-amino-cADPR (8-amino-cADPR);\nFIG. 5 Effectiveness of 8-amino-cADPR in blocking Ca^+2 release induced by cADPR. (a) Ca^+2 release from S. purpuratus homogenates (1.25%) induced by the addition of 95 nM cADPR was measured using Fluo 3 as Ca^+2 indicator. (b-d) After the Ca^+2 release had started, increasing amounts of 8-amino-cADPR (8-NH2) were added to give the final concentrations indicated in the Figure;\nas §1, §2"}, "[4]": {"test_system": "cADPR-sensitive Ca^+2 release", "assay": "cADPR-induced Ca2+ release from L. pictus egg homogenates, Fluo 3", "type": "biochemical, Lytechinus pictus"}, "[5]": {"test_system": "cADPR-sensitive release", "details": "pharmacological blockers of CICR; cited from earlier work"}, "[6]": {"test_system": "specific microsomal binding site for cADPR", "details": "cited from earlier work"}, "[7]": {"test_system": "Ca^+2 release induced by ryanodine", "assay": "Ryanodine induced Ca2+ release, S. purpuratus homogenates", "type": "biochemical, Strongylocentrotus purpuratus", "method": "FIG. 8 Inability of 8-amino-cADPR to block Ca^+2 release induced by ryanodine. Ca^+2 release from S. purpuratus homogenates (1.25%) was measured using Fluo 3 as Ca^+2 indicator. Ryanodine and 8-amino-cADPR(8-NH2) were added to the final concentrations as indicated;\nas §1, with “The homogenates were centrifuged for 12-14 seconds (13,000×g, 4° C.) in a microfuge (Fisher) and the supernatant was collected and stored frozen at -70 ° C. until use.” left out\n(§3) Frozen egg homogenates prepared as described above were thawed in a 17° C. water bath for 20-30 min and then diluted to 5% with the homogenization medium (GLuIM) containing 2 units/ml of creatine kinase, 4 mM phosphocreatine and 0.5 mM ATP. […] Fluorescence was measured at 490 nm excitation and 535 nm emission using a Hitachi spectrofluorimeter (F-2000). Fluo 3 fluorescence intensity is directly related to the Ca^+2 concentration (Dargie, P. J., Agre, M. C., and Lee, Hon. C. (1990) Cell Regulation 1,279-290). In some Figures the Fluo 3 fluorescence intensity was calibrated with the addition of known amounts of Ca^ +2. […]"}, "[8]": {"test_system": "Ca^+2 induced Ca^+2 release", "assay": "cADPR potentiation of divalent cation (Ca2+, Sr2+) induced Ca2+ release, S. purpuratus homogenates", "type": "biochemical, Strongylocentrotus purpuratus", "method": "FIG. 6 Inhibition of the potentiating effect of cADPR on Ca^+2 release induced by divalent cations. […] release from S. purpuratus homogenates (1.25% ) was measured using Fluo 3 as Ca^+2 indicator. (a) Ca^+2 release was induced by 75 nM cADPR in the absence of 8-amino-cADPR (-8-NH2). Prior addition of 50 nM 8-amino-cADPR (+8 NH2) prohibited cADPR (75 nM) from releasing Ca^+2. (b) In the presence of 30 nM cADPR, addition of 0.4 nmol of Ca^+2 (arrow labeled Ca) induced further Ca^+2 release (-8-NH2). Prior addition of 50 nM 8-amino-cADPR blocked cADPR from potentiating the Ca^+2 induced Ca^+2 release (+8-NH2). (c) In the presence of 30 nM cADPR, addition of 2 nmol of Sr^+2 (arrow labeled Sr) induced further Ca^ +2 release (-8-NH2). […]\nas §3"}}}
{"molecule": "N=c1c2ncn3c2ncn1[C@@H]1O[C@H](COP(=O)(O)OP(=O)(O)OC[C@H]2O[C@@H]3[C@H](O)[C@@H]2O)[C@@H](O)[C@H]1O", "note": "[cADPR, Cyclic ADP-ribose, reference compound]", "values": [{"measurement": "potentiation of caffeine (1 mM) induced Ca^+2 release", "setting": "[1]; 20 nM cADPR, not sufficient to release Ca^+2 by itself", "value": "greatly increased the caffeine sensitivity"}, {"measurement": "Kd", "setting": "[2]; dialyzed L. pictus homogenates, 0-5 C, no ATP, read-out: apparent affinity constant derived from the binding data", "value": "~1", "unit": "nM"}, {"measurement": "EC50", "setting": "[3]; in the absence of the analog, read-out: half-maximal concentration for Ca^+2 release", "value": "~90", "unit": "nM"}]}
{"molecule": "N=c1c2nc(Br)n3c2ncn1[C@@H]1O[C@H](COP(=O)(O)OP(=O)(O)OC[C@H]2O[C@@H]3[C@H](O)[C@@H]2O)[C@@H](O)[C@H]1O", "note": "[8-Br-cADPR]", "values": [{"measurement": "concentrations required for antagonism, compared with 8-amino-cADPR", "setting": "[4]; 40 nM cADPR", "value": "required micromolar concentrations"}, {"measurement": "Ca^+2 release caused by the analog itself", "setting": "[4]; 1 to 3.5 uM, L. pictus homogenates 2.5%", "value": "did not release"}, {"measurement": "blockage of Ca^+2 release induced by 40 nM cADPR", "setting": "[4]; prior addition of increasing concentrations, 1 to 3.5 uM", "value": "progressive blockage"}]}
{"molecule": "N.N.N.N.N.N.N.N.N.N.N.N.N.N.[Cl-].[Cl-].[Cl-].[Cl-].[Cl-].[Cl-].[O-2].[O-2].[Ru+3].[Ru+3].[Ru+4]", "note": "[ruthenium red]", "values": [{"measurement": "effect on the cADPR-sensitive release", "setting": "[5]", "value": "specifically inhibit"}]}
{"molecule": "Cn1c(=O)c2c(ncn2C)n(C)c1=O", "note": "[caffeine, reference compound]", "values": [{"measurement": "Ca^+2 release by caffeine alone", "setting": "[1]; 1 mM caffeine, absence of cADPR", "value": "did not produce any"}]}
{"molecule": "CCN(CC)CCOC(=O)c1ccc(N)cc1", "note": "[procaine]", "values": [{"measurement": "effect on the cADPR-sensitive release", "setting": "[5]", "value": "specifically inhibit"}]}
{"molecule": "inositol trisphosphate", "values": [{"measurement": "competition for the specific microsomal binding site for cADPR, relative to cADPR", "setting": "[6]", "value": "at least a thousand times less effectively than cADPR"}]}
{"molecule": "ryanodine [reference compound]", "values": [{"measurement": "Ca^+2 release on addition to egg homogenates", "setting": "[7]; ryanodine alone", "value": "concentration-dependent release"}]}
{"molecule": "N=c1c2nc(N)n3c2ncn1[C@@H]1O[C@H](COP(=O)(O)OP(=O)(O)OC[C@H]2O[C@@H]3[C@H](O)[C@@H]2O)[C@@H](O)[C@H]1O", "note": "[8-amino-cADPR]", "values": [{"measurement": "block of Ca^+2 release induced by a high concentration of caffeine", "setting": "[1]; 100 nM antagonist, 2.5 mM caffeine, data not shown", "value": "did not block"}, {"measurement": "inhibition of cADPR (20 nM) potentiation of caffeine (1 mM) induced Ca^+2 release", "setting": "[1]; prior addition of 10 nM antagonist", "value": "substantial inhibition"}, {"measurement": "inhibition of cADPR (20 nM) potentiation of caffeine (1 mM) induced Ca^+2 release", "setting": "[1]; prior addition of 100 nM antagonist", "value": "completely blocked"}, {"measurement": "stimulated Ca^+2 release after 0.4 nmol Ca^+2 in the presence of 30 nM cADPR", "setting": "[8]; 50 nM antagonist added before cADPR", "value": "absent"}, {"measurement": "stimulated Ca^+2 release after Sr^+2 in the presence of 30 nM cADPR", "setting": "[8]; prior addition of 50 nM antagonist, 2 nmol Sr^+2", "value": "blocked"}, {"measurement": "competition for the [32P]cADPR binding sites", "setting": "[2]; L. pictus egg microsomes, compared with unlabeled cADPR", "value": "as effective as cADPR itself"}, {"measurement": "effect of antagonist on the Ca^+2 release activity of ryanodine", "setting": "[7]; 100 nM antagonist", "value": "slightly stimulated"}, {"measurement": "inhibition of Ca^+2 release induced by ryanodine", "setting": "[7]; 100 nM antagonist", "value": "did not inhibit"}, {"measurement": "effect on the concentration-response curve of cADPR", "setting": "[3]; 100 nM 8-amino-cADPR present", "value": "shifted the concentration-response curve toward higher concentrations of cADPR"}, {"measurement": "IC50", "setting": "[3]; 135 nM cADPR, read-out: concentration of antagonist at which the rate of Ca^+2 release induced by cADPR was reduced by half", "value": "~9", "unit": "nM"}, {"measurement": "block of Ca^+2 release induced by cADPR", "setting": "[3]; 150 nM analog added before 135 nM cADPR", "value": "virtually complete"}, {"measurement": "Ca^+2 release caused by the analog itself", "setting": "[3]; 150 nM final concentration, egg homogenates 1.25%", "value": "did not cause any"}, {"measurement": "kind of antagonism of cADPR", "setting": "[3]; inhibition overcome by increasing cADPR", "value": "reversible antagonist"}, {"measurement": "block of Ca^+2 release induced by 75 nM cADPR", "setting": "[3]; prior addition of 50 nM antagonist", "value": "total blockage"}, {"measurement": "effect on ongoing Ca^+2 release when added after release had commenced", "setting": "[3]; release activated by 95 nM cADPR, 100 nM antagonist", "value": "almost total cessation"}]}
{"molecule": "[N-]=[N+]=Nc1nc2c(=N)n3cnc2n1[C@@H]1O[C@H](COP(=O)(O)OP(=O)(O)OC[C@H]2O[C@@H]3[C@H](O)[C@@H]2O)[C@@H](O)[C@H]1O", "note": "[8-azido-cADPR]", "values": [{"measurement": "antagonist potency rank", "setting": "[4]; data not shown", "value": "between that of 8-amino-cADPR and 8-Br-cADPR"}]}
